Reference: US10059760B2 (priority 2014, dated 2018)
Where two headings read alike, the source gives them in different places.

Details: mouse, in vivo

| Structure (SMILES) | tolerance (sc, 25 mg/kg) | tolerance (50 mg/kg) |
| --- | --- | --- |
| O=C(O)c1cn(C2CC2)c2cc(N3CCNCC3)c(F)cc2c1=O [ciprofloxacin] | favorably tested |  |
| C[C@H]1c2cccc(O)c2C(=O)C2=C(O)[C@]3(O)C(=O)C(C(N)=O)=C(O)[C@@H](N(C)C)[C@@H]3[C@@H](O)[C@@H]21 [doxycycline] |  | poorly tolerated |
